Experimental data: PubChem BioAssay (NCI)
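Five compound concentrations were applied to cells in 96-well plates for 48 hours; endpoints were derived by simple linear interpolation of the resulting dose-response curve. TGI: concentration producing complete growth inhibition.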

Columns and labels:
Test in all cases: NCI anticancer screen, dose series, 48 h
[1] = test system: 786-0 renal
[2] = test system: A549 NSCLC
[3] = test system: ACHN renal
[4] = test system: BT-549 breast
[5] = test system: CCRF-CEM leukemia
[6] = test system: COLO 205 colon
[7] = test system: DU-145 prostate
[8] = test system: EKVX NSCLC
[9] = test system: HCC-2998 colon
[10] = test system: HCT-116 colon
[11] = test system: HCT-15 colon
[12] = test system: HL-60(TB) leukemia
[13] = test system: HOP-62 NSCLC
[14] = test system: HOP-92 NSCLC
[15] = test system: K-562 leukemia
[16] = test system: KM12 colon
[17] = test system: M14 melanoma
[18] = test system: MALME-3M melanoma
[19] = test system: MCF7 breast
[20] = test system: MDA-MB-231 breast
[21] = test system: MDA-MB-435
[22] = test system: MDA-N
[23] = test system: MOLT-4 leukemia
[24] = test system: NCI-H226 lung
[25] = test system: NCI-H23 lung
[26] = test system: NCI-H460 lung
[27] = test system: NCI-H522 lung
[28] = test system: NCI/ADR-RES ovarian
[29] = test system: OVCAR-3 ovarian
[30] = test system: OVCAR-4 ovarian
[31] = test system: OVCAR-5 ovarian
[32] = test system: OVCAR-8 ovarian
[33] = test system: PC-3 prostate
[34] = test system: RPMI-8226 leukemia
[35] = test system: SF-268 CNS
[36] = test system: SF-295 CNS
[37] = test system: SK-MEL-2 melanoma
[38] = test system: SN12C renal
[39] = test system: SNB-19 CNS
[40] = test system: SR leukemia
[41] = test system: SW-620 colon
[42] = test system: T-47D breast
[43] = test system: TK-10 renal
[44] = test system: U251 CNS
[45] = test system: UACC-257 melanoma
[46] = test system: A498 renal
[47] = test system: HS 578T breast
[48] = test system: HT29 colon
[49] = test system: IGROV1 ovarian
[50] = test system: LOX IMVI melanoma
[51] = test system: RXF 393 renal
[52] = test system: SF-539 CNS
[53] = test system: SK-MEL-28 melanoma
[54] = test system: SK-MEL-5 melanoma
[55] = test system: SNB-75 CNS
[56] = test system: UACC-62 melanoma
[57] = test system: UO-31 renal

For `CCN(CC)CCC(=O)/C=C/c1ccc(Cl)c(Cl)c1`, the TGI [1] was greater than 10 µM, the TGI [2] was greater than 10 µM and the TGI [3] was greater than 10 µM. The TGI [4] was greater than 10 µM, the TGI [5] was 7.18 µM and the TGI [6] was greater than 10 µM. For the same molecule, the TGI [7] was greater than 10 µM, the TGI [8] was greater than 10 µM and the TGI [9] was greater than 10 µM. The TGI [10] was 3.74 µM, the TGI [11] was greater than 10 µM and the TGI [12] was 1.76 µM. The TGI [13] was greater than 10 µM, the TGI [14] was greater than 10 µM and the TGI [15] was greater than 10 µM. The TGI [16] was greater than 10 µM, the TGI [17] was greater than 10 µM and the TGI [18] was greater than 10 µM. For the same molecule, the TGI [19] was greater than 10 µM, the TGI [20] was greater than 10 µM and the TGI [21] was greater than 10 µM. It also gave a TGI [22] greater than 10 µM, a TGI [23] greater than 10 µM and a TGI [24] greater than 10 µM. It also gave a TGI [25] greater than 10 µM, a TGI [26] greater than 10 µM and a TGI [27] of 3.54 µM. For the same molecule, the TGI [28] was 4.66 µM, the TGI [29] was greater than 10 µM and the TGI [30] was greater than 10 µM. The TGI [31] was greater than 10 µM, the TGI [32] was greater than 10 µM and the TGI [33] was greater than 10 µM. The TGI [34] was 0.603 µM, the TGI [35] was greater than 10 µM and the TGI [36] was greater than 10 µM. For the same molecule, the TGI [37] was greater than 10 µM, the TGI [38] was 4.24 µM and the TGI [39] was greater than 10 µM. It also gave a TGI [40] of 9.43 µM, a TGI [41] of 5.63 µM and a TGI [42] of 5.86 µM. The TGI [43] was 9.98 µM, the TGI [44] was greater than 10 µM and the TGI [45] was greater than 10 µM.
`CC1OC(NCCNCCNC2OC(C)C(O)C(O)C2O)C(O)C(O)C1O` (centres undefined) showed a TGI [1] greater than 100 µM, a TGI [46] greater than 100 µM and a TGI [2] greater than 100 µM. The TGI [3] was greater than 100 µM, the TGI [4] was greater than 100 µM and the TGI [6] was greater than 100 µM. For the same molecule, the TGI [7] was greater than 100 µM, the TGI [8] was greater than 100 µM and the TGI [10] was greater than 100 µM. The TGI [11] was greater than 100 µM, the TGI [12] was greater than 100 µM and the TGI [13] was greater than 100 µM. The TGI [14] was greater than 100 µM, the TGI [47] was greater than 100 µM and the TGI [48] was greater than 100 µM. It also gave a TGI [49] greater than 100 µM, a TGI [15] greater than 100 µM and a TGI [16] greater than 100 µM. The TGI [50] was greater than 100 µM, the TGI [17] was greater than 100 µM and the TGI [18] was greater than 100 µM. The TGI [19] was greater than 100 µM, the TGI [20] was greater than 100 µM and the TGI [22] was greater than 100 µM. For the same molecule, the TGI [23] was greater than 100 µM, the TGI [24] was greater than 100 µM and the TGI [25] was greater than 100 µM. The TGI [26] was greater than 100 µM, the TGI [27] was greater than 100 µM and the TGI [28] was greater than 100 µM. For the same molecule, the TGI [29] was greater than 100 µM, the TGI [30] was greater than 100 µM and the TGI [31] was greater than 100 µM. For the same molecule, the TGI [32] was greater than 100 µM, the TGI [33] was greater than 100 µM and the TGI [34] was greater than 100 µM. The TGI [51] was greater than 100 µM, the TGI [35] was greater than 100 µM and the TGI [36] was greater than 100 µM. It also gave a TGI [52] greater than 100 µM, a TGI [37] greater than 100 µM and a TGI [53] greater than 100 µM. The TGI [54] was greater than 100 µM, the TGI [38] was greater than 100 µM and the TGI [39] was greater than 100 µM. It also gave a TGI [55] greater than 100 µM, a TGI [40] greater than 100 µM and a TGI [41] greater than 100 µM. For the same molecule, the TGI [42] was greater than 100 µM, the TGI [43] was greater than 100 µM and the TGI [44] was greater than 100 µM. It also gave a TGI [45] greater than 100 µM, a TGI [56] greater than 100 µM and a TGI [57] greater than 100 µM.
